Measurements published in patent publication US20150306096A1, “8'-HYDROXY-DIHYDROERGOTAMINE COMPOUNDS AND COMPOSITIONS” (MAP Pharmaceuticals, Inc., priority 2012, published 2015).
Like-named read-outs stand apart in the source and are kept apart here.

Key:
[1] = target: T1, human Serotonin 5-HT4e receptor (Homo sapiens, UniProt Q13639); test: cAMP HTRF functional assay (agonist/antagonist); assay type: cell-based
T1 construct: expressed in transfected cells; host or cells: CHO-K1 (transient)
Procedure: Functional profiling of agonist and antagonist activities of 8′-OH DHE on human Adrenergic α1D, Dopamine D2L, and Serotonin 5-HT1B, 5-HT1D, 5-HT1F, 5-HT3, 5-HT4e and 5-HT5A receptors (compared against the parent (DHE) molecule) was carried out as follows.
The SPA 35S-GTPγS tests were conducted with Euroscreen membrane preparations […]. The HTRF assays were conducted with recombinant cell lines. The receptor accession numbers, cellular background and reference compounds are as reported below in Table 10.
(4) DHE and 8′-OH DHE were tested for agonist and antagonist activity at the human Serotonin 5-HT1F and Serotonin 5-HT4E receptors using cAMP HTRF assay (in triplicate) at the following nanomolar concentrations: […]
Agonist activity of the test compounds was expressed as a percentage of the activity of the reference agonist at its EC100 concentration. Antagonist activity of the test compounds was expressed as a percentage of the inhibition of the reference agonist activity at its EC80 concentration. Dose-response data from the test compounds were analyzed with XLfit (IDBS) software using nonlinear regression applied to a sigmoidal dose-response model and the following equation: […]

[2] = cited from earlier work

T1 sequence (Q13639 1-378 isoform Q13639-5): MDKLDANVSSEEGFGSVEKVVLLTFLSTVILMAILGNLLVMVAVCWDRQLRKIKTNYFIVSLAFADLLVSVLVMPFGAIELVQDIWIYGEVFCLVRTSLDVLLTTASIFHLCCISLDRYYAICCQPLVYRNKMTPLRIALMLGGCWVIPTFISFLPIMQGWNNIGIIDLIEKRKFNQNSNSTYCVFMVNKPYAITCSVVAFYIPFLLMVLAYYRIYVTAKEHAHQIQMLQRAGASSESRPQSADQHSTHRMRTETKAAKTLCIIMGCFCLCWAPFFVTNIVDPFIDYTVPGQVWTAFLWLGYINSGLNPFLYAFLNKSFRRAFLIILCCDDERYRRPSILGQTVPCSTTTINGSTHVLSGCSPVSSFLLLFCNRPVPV

| Compound | EC50 ([1]; Serotonin 5-HT4e, cAMP HTRF, read-out: Functional activity (agonist)) | metabolite concentration relative to parent DHE ([2]; previous studies) | EC50 [1] | serum half-life ([2]; serum) |
| --- | --- | --- | --- | --- |
| CN1C[C@H](C(=O)N[C@]2(C)O[C@@]3(O)[C@@H]4CCC(O)N4C(=O)[C@H](Cc4ccccc4)N3C2=O)C[C@@H]2c3cccc4[nH]cc(c34)C[C@H]21 (stereo partly shown) [8′-OH DHE, 8′-Hydroxy-Dihydroergotamine] | 109 nM | 5 to 7 times | – | – |
| CN1C[C@H](C(=O)N[C@]2(C)O[C@@]3(O)[C@@H]4CCCN4C(=O)[C@H](Cc4ccccc4)N3C2=O)C[C@@H]2c3cccc4[nH]cc(c34)C[C@H]21 [DHE, Dihydroergotamine] | – | – | 105 nM | 10 to 13 h |
